Drawing on patent publication US12410160B2 (Gilead Sciences, Inc., priority 2021, dated 2025), this text covers EC50 and IC50 for 21 molecules.

Where two headings read alike, the source gives them in different places.

One test deals with HepG2 cells. The test can be described thus: F1P Cell-Based Assay (EC50), 13C6-fructose-1-phosphate in HepG2 cells (cell culture medium or 50% human plasma). The method, then:
F1P Cell-Based Assay (EC50)
Compounds were serially diluted (1:3) in DMSO. The LabCyte ECHO Acoustic dispenser system was used to pre-spot the assay plates (Greiner, Catalog #781091) with 400 nL (200-fold final dilution in 80 μL assay volume) of compound. 25,000 cells/well HepG2 cells (ATCC Catalog #HB-8065) were plated in a 40 μL volume/well in DMEM medium with 4.5 g/L glucose, 1× Penicillin-Streptomycin-Glutamine, and 10% FBS, using a BioTEK dispenser in a biological hood and incubated overnight at 37° C., 5% CO2, 90% humidity. 40 μL/well serum free assay medium (for F1P assay in cell culture medium), or 40 μL/well 100% human plasma (for F1P assay in 50% human plasma) were then added to the plates on the following day, and incubated for 1 hour at 37° C., 5% CO2, 90% humidity. ^13C6-labelled fructose (Sigma, Catalog #587621) in sterile PBS was added to the plates at a final concentration of 5 mM. The plates were incubated for 2 hours at 37° C., 5% CO2, 90% humidity. The assay was quenched by washing the cells with sterile PBS and adding 60 μL/well of 80% (v/v) methanol, 2 mM ammonium acetate and 2.5 μM Crotonyl-CoA, using a BioTEK washer-dispenser system. The plates were then sealed and stored in the −80° C. freezer until ready for RapidFire readout. ^13C6-fructose-1-phosphate in individual wells was quantified using the Agilent RapidFire High-Throughput MS system in negative mode using a […]. Mobile Phase 1 consisted of 20 mM ammonium acetate with 0.05% acetic acid in 100% methanol. Mobile phase 2 consisted of 5 mM octylamine in water (pH adjusted to 5 using acetic acid). F1P signals in individual wells were normalized by crotonyl CoA internal control.

In another test the target is human KHK-C (Homo sapiens (Human), UniProt P50053). The test can be described thus: KHK Biochemical Assay (IC50), ADP-Glo, KHK-C. Particulars: average of at least two separate assays. The gist of the method: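 His-tagged enzyme expressed in BL21 (DE3), Ni-NTA purified. Compounds, serially diluted 1:3 in DMSO, pre-incubated 30 min with enzyme in 50 mM Hepes pH 7.4, 140 mM KCl, 5 mM MgCl2, 0.01% Triton-X, then ATP and fructose added; 4 h at room temperature. ADP formation read by ADP-Glo luminescence.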
human KHK-C, sequence (P50053 whole entry): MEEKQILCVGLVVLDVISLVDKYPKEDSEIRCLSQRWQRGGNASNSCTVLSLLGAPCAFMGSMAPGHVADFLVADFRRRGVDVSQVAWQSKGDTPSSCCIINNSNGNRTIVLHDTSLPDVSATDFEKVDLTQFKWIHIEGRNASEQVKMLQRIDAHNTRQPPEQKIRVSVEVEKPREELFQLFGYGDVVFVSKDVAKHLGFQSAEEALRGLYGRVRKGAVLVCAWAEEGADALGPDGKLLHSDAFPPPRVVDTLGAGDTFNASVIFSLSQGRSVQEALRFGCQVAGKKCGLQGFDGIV

The mark [1] stands for this setting: Homo sapiens, HepG2, HepG2 cells, 50% human plasma, read-out: F1P 50% HP EC50.
[2] abbreviates: Homo sapiens, HepG2, read-out: F1P 10% FBS EC50, HepG2 cells, cell culture medium (10% FBS).
Setting [3] is: HepG2 cells, 50% human plasma, read-out: F1P 50% HP EC50.
Setting [4] is: read-out: F1P 10% FBS EC50, HepG2 cells, cell culture medium (10% FBS).

The EC50 is the midpoint of the concentration-response curve. As usually defined, the IC50 is the point on the concentration scale where inhibition reaches its midpoint. A low value points to greater potency. In the case of `C[C@H]1[C@H](O)CN1c1nc(-c2ccc3c(c2)CC[C@]32COC(=O)N2)c2c(n1)C(F)(F)CC2` (single isomer, unassigned) [Example 475], the EC50 turned out to be 207 nM in the test on HepG2 cells (setting [1]) and 104 nM in the test on HepG2 cells (setting [2]). The molecule also displayed an IC50 on human KHK-C of 15 nM.

On to `COc1cc(-c2nc(N3C[C@@H](O)[C@@H]3C)nc3c2CCC3(F)F)cc2c1[C@H](NS(C)(=O)=O)CO2` (single isomer, unassigned) [Example 478], for which the 50% effective concentration (EC50) in the test with HepG2 cells (setting [3]) was 55.5 nM; in the test with HepG2 cells (setting [2]), 28.5 nM. At human KHK-C, this molecule returned an IC50 of 2.9 nM.

As to `C[C@H]1[C@H](O)CN1c1nc(-c2ccc([C@@]3(N)CCOC3)cc2)c2c(n1)C(F)(F)CC2` (single isomer, unassigned) [Example 517], the EC50 in the test with HepG2 cells (setting [1]) worked out at 6.3 nM; in the test on HepG2 cells (setting [2]), 4.8 nM. This molecule also displayed an IC50 against human KHK-C of 1 nM.

In the case of `C[C@H]1[C@H](O)CN1c1nc(-c2cc(F)c3c(c2)CC[C@@H]3NS(C)(=O)=O)c2c(n1)C(F)(F)CC2` (single isomer, unassigned) [Example 526], the figures for the EC50 in the test with HepG2 cells (setting [1]) and in the test on HepG2 cells (setting [2]) were 114 nM and 30.8 nM, respectively. Further, at human KHK-C, the IC50 was 4.9 nM.

In the case of `C[C@H]1[C@H](O)CN1c1nc(-c2cc(F)c3c(c2)CC[C@H]3NS(C)(=O)=O)c2c(n1)C(F)(F)CC2` (single isomer, unassigned) [Example 527], the EC50 with HepG2 cells (setting [1]) came out at 123 nM; with HepG2 cells (setting [2]) it was 81.2 nM. Besides, the IC50 against human KHK-C is 8 nM.

As for `COc1cc(-c2nc(N3C[C@@H](O)[C@@H]3C)nc3c2CCC3(F)F)cc2c1[C@H](NS(C)(=O)=O)CO2` (single isomer, unassigned) [Example 531], the EC50 in the test with HepG2 cells (setting [3]) turned out to be 439 nM; in the test on HepG2 cells (setting [4]), 55.1 nM. Also, on human KHK-C, half-maximal inhibition (IC50) required 9 nM.

As for `CC[C@H]1CNC(=O)c2ccc(-c3nc(N4C[C@@H](O)[C@@H]4C)nc4c3CCC4(F)F)cc2O1` (single isomer, unassigned) [Example 592], the EC50 with HepG2 cells (setting [1]) is 56.9 nM; with HepG2 cells (setting [2]), 15.3 nM. At human KHK-C, this molecule showed an IC50 of 7.3 nM.

On to `CC[C@@H]1CNC(=O)c2ccc(-c3nc(N4C[C@@H](O)[C@@H]4C)nc4c3CCC4(F)F)cc2O1` (single isomer, unassigned) [Example 593], for which the EC50 in the test with HepG2 cells (setting [3]) was determined as 58.7 nM; in the test with HepG2 cells (setting [4]) it was 22.8 nM. Further, at human KHK-C, half-maximal inhibition (IC50) required 7.5 nM.

Consider `C[C@H]1[C@H](O)CN1c1nc(-c2ccc3c(c2)O[C@@H](CF)CNC3=O)c2c(n1)C(F)(F)CC2` (single isomer, unassigned) [Example 595], for which the EC50 in the test on HepG2 cells (setting [1]) worked out at 51 nM; with HepG2 cells (setting [2]), 34.9 nM. The molecule further returned an IC50 against human KHK-C of 4.4 nM.

For the molecule `C[C@H]1[C@H](O)CN1c1nc(-c2ccc3c(c2)O[C@H](CF)CNC3=O)c2c(n1)C(F)(F)CC2` (single isomer, unassigned) [Example 596], the EC50 is 13.6 nM in the test with HepG2 cells (setting [1]) and 12.2 nM with HepG2 cells (setting [2]). The molecule further returned a half-inhibitory concentration (IC50) against human KHK-C of 2 nM.

As to `CCS(=O)(=O)N[C@H]1COc2cc(-c3nc(N4C[C@@H](O)[C@@H]4C)nc4c3CCC4(F)F)ccc21` [Example 624, N—((R)-6-(7,7-difluoro-2-((2S,3R)-3-hydroxy-2-methylazetidin-1-yl)-6,7-dihydro-5H-cyclopenta[d]pyrimidin-4-yl)-2,3-dihydrobenzofuran-3-yl)ethanesulfonamide], the 50% effective concentration (EC50) was 282 nM with HepG2 cells (setting [1]) and 129 nM in the test with HepG2 cells (setting [2]).

Take `C[C@H]1CCN1c1nc(-c2cn(C3CNC3)nn2)c2c(n1)C(F)(F)CC2` [Example 653, 4-[1-(azetidin-3-yl)triazol-4-yl]-7,7-difluoro-2-[(2S)-2-methylazetidin-1-yl]-5,6-dihydrocyclopenta[d]pyrimidine]: the EC50 was found to be 10.3 nM in the test with HepG2 cells (setting [1]) and 11 nM in the test with HepG2 cells (setting [2]).

For `C[C@H]1CCN1c1nc(-c2cccc(-n3ccnn3)c2)c2c(n1)C(F)(F)CC2` [Example 654, 7,7-difluoro-2-[(2S)-2-methylazetidin-1-yl]-4-[3-(triazol-1-yl)phenyl]-5,6-dihydrocyclopenta[d]pyrimidine], the values for the EC50 with HepG2 cells (setting [1]) and with HepG2 cells (setting [2]) were 214 nM and 129 nM, respectively.

Consider `C[C@H]1CCN1c1nc(-c2ccc(-n3ccnn3)cc2)c2c(n1)C(F)(F)CC2` [Example 655, 7,7-difluoro-2-[(2S)-2-methylazetidin-1-yl]-4-[4-(triazol-1-yl)phenyl]-5,6-dihydrocyclopenta[d]pyrimidine], for which the EC50 with HepG2 cells (setting [1]) came to 236 nM; in the test on HepG2 cells (setting [2]), 46.2 nM.

On to `N#C[C@H]1CCN1c1nc(-c2ccc([C@@H](N)C(F)F)cc2)c2c(n1)C(F)(F)CC2` [Example 660, (2R)-1-[4-[4-[(1R)-1-amino-2,2-difluoro-ethyl]phenyl]-7,7-difluoro-5,6-dihydrocyclopenta[d]pyrimidin-2-yl]azetidine-2-carbonitrile], for which the EC50 in the test with HepG2 cells (setting [1]) was found to be 26.7 nM; in the test on HepG2 cells (setting [2]) it was 19.8 nM.

Regarding `C[C@H]1[C@H](O)CN1c1nc(-c2ccc3c(c2)CCS3(=N)=O)c2c(n1)C(F)(F)CC2` (stereo partly drawn) [Example 664, (2S,3R)-1-[7,7-difluoro-4-(1-imino-1-oxo-2,3-dihydrobenzothiophen-5-yl)-5,6-dihydrocyclopenta[d]pyrimidin-2-yl]-2-methyl-azetidin-3-ol], the EC50 was 80.2 nM with HepG2 cells (Homo sapiens, HepG2, read-out: F1P 10% FBS EC50) and 78.6 nM in the test with HepG2 cells (Homo sapiens, HepG2, read-out: F1P 50% HP EC50).

As to `C[C@H]1[C@H](O)CN1c1nc(-c2ccc3c(c2)S(=O)(=O)CC3NS(C)(=O)=O)c2c(n1)C(F)(F)CC2` (stereo partly drawn) [Example 665, N-[6-[7,7-difluoro-2-[(2S,3R)-3-hydroxy-2-methyl-azetidin-1-yl]-5,6-dihydrocyclopenta[d]pyrimidin-4-yl]-1,1-dioxo-2,3-dihydrobenzothiophen-3-yl]methanesulfonamide], the figures for the EC50 with HepG2 cells (setting [1]) and in the test on HepG2 cells (setting [2]) were 88.4 nM and 52.7 nM, respectively.

`C[C@H]1[C@H](O)CN1c1nc(-c2cccc(N=S3(=O)CCOCC3)c2)c2c(n1)C(F)(F)CC2` [Example 673, (2S,3R)-1-[7,7-difluoro-4-[3-[(4-oxo-1,4-oxathian-4-ylidene)amino]phenyl]-5,6-dihydrocyclopenta[d]pyrimidin-2-yl]-2-methyl-azetidin-3-ol]: the EC50 in the test on HepG2 cells (setting [1]) is 75.8 nM; in the test with HepG2 cells (setting [2]), 20.3 nM.

On to `C[C@H]1[C@H](O)CN1c1nc(-c2ccc3c(c2)S(C)(=O)=NC3)c2c(n1)C(F)(F)CC2` (stereo partly drawn) [Example 805, (2S,3R)-1-[7,7-difluoro-4-(1-methyl-1-oxo-3H-1,2-benzothiazol-6-yl)-5,6-dihydrocyclopenta[d]pyrimidin-2-yl]-2-methyl-azetidin-3-ol], for which the figures for the 50% effective concentration (EC50) in the test on HepG2 cells (setting [1]) and in the test on HepG2 cells (setting [2]) were 74.1 nM and 67.9 nM, respectively.

Turning to `COC(=O)N[C@H]1COc2cc(-c3nc(N4C[C@@H](O)[C@@H]4C)nc4c3CCC4(F)F)ccc21` [Example 814, Methyl N-[(3R)-6-[7,7-difluoro-2-[(2S,3R)-3-hydroxy-2-methyl-azetidin-1-yl]-5,6-dihydrocyclopenta[d]pyrimidin-4-yl]-2,3-dihydrobenzofuran-3-yl]carbamate], the EC50 with HepG2 cells (setting [1]) was 155 nM; in the test on HepG2 cells (setting [2]), 91.6 nM.

For the molecule `COC(=O)N[C@@H]1COc2cc(-c3nc(N4C[C@@H](O)[C@@H]4C)nc4c3CCC4(F)F)ccc21` [Example 815, Methyl N-[(3S)-6-[7,7-difluoro-2-[(2S,3R)-3-hydroxy-2-methyl-azetidin-1-yl]-5,6-dihydrocyclopenta[d]pyrimidin-4-yl]-2,3-dihydrobenzofuran-3-yl]carbamate], the EC50 in the test on HepG2 cells (setting [1]) came out at 138 nM; with HepG2 cells (setting [2]), 64.3 nM.
